Experimental data: patent US20240366589A1, “NHE3-BINDING COMPOUNDS AND METHODS FOR INHIBITING PHOSPHATE TRANSPORT” (Ardelyx, Inc., priority 2013, published 2024)

Columns and labels:
[1] = tested on: intestinal phosphate uptake; assay: Pharmacodynamic study with 33P oral challenge in normal function rats; assay type: in vivo, rat; conditions: 8 mM Pi with 33P, 10 mg/kg, dihydrochloride salts, FIG. 1A
Experimental: The compounds identified as Cpds 003, 004, and 005 (from Table E4, as their dihydrochloride salts) were tested for the ability to block intestinal phosphate uptake in rats. Rats were orally challenged with dosing solutions composed of 5 ml/kg (˜1.3 ml) of 8 mM Pi with ^33P and +/−10 mg/kg of test compound. Also included were dosing solutions further composed of either (i) 75 mM glucose+4 mM Ca or (ii) 4 mM Ca.

[2] = tested on: adenine-induced uremic rat model; assay: Adenine-induced uremic rat model; assay type: in vivo
Experimental: The effects of Cpd 002 (from Table E4, as the dihydrochloride salt) were tested in an adenine-induced uremic rat model. Rats were fed a diet including 0.75% adenine and 1.2% phosphorus during the nephritis induction phase. The basal diet during the treatment phase was normal chow including 0.3% adenine and 0.6% phosphorus for 2 weeks. The rats were pair-fed the first 5 days (groups 1 and 2 to group 3, 4 days apart), and fed ad libitum afterwards. The treatment groups were as follows: vehicle, n=10; Cpd 002, 2 mg/kg/day drug-in-chow, n=10; and Cpd 002, 5 mg/kg/day drug-in-chow, n=12. Weekly measurements were taken for serum markers and kidney function. The study design is illustrated in FIG. 8A.

[3] = early time points, 2 and 5 mg/kg/day drug-in-chow
[4] = week three, highest dose 5 mg/kg/day

| SMILES | Pi uptake after 33P oral challenge [1] | serum creatinine [2, 3] | serum phosphorus [2, 3] | heart remodeling (organ weight) ([2]; week three) | kidney remodeling (organ weight) ([2]; week three) | heart calcification (tissue mineralization) [2, 4] | kidney calcification (tissue mineralization) [2, 4] |
| --- | --- | --- | --- | --- | --- | --- | --- |
| CN1Cc2c(Cl)cc(Cl)cc2[C@@H](c2cccc(S(=O)(=O)NCCOCCOCCNC(=O)NCCCCNC(=O)NCCOCCOCCNS(=O)(=O)c3cccc([C@H]4CN(C)Cc5c(Cl)cc(Cl)cc54)c3)c2)C1 [Cpd 004] | as potent at reducing Pi uptake as a persistent inhibitor such as Cpd 003 |  |  |  |  |  |  |
| CN1Cc2c(Cl)cc(Cl)cc2[C@H](c2cccc(S(=O)(=O)NCCOCCOCCNC(=O)NCCCCNC(=O)NCCOCCOCCNS(=O)(=O)c3cccc([C@@H]4CN(C)Cc5c(Cl)cc(Cl)cc54)c3)c2)C1 [Cpd 002] |  | reduced | reduced | trend towards lesser heart and kidney remodeling | trend towards lesser heart and kidney remodeling | trend towards reduced heart and kidney calcification | trend towards reduced heart and kidney calcification |
